Measured values published in US20220273678A1 (priority 2020, published 2022).
“Also recorded” adds a separate entry of the source. Read-outs that look alike come from different tables or passages of the source.

Legend:
cleaved caspase 3 [1] = type: cell-based, African green monkey; conditions: Vero, methanesulfonate
[2] = system: IL-6, IL-1β, IL-8, IL-10, TNF-α; type: cell-based, human
[3] = system: SARS-CoV-2 wild type (WT); assay: Lung inflammation in K18-hACE2 mice infected with SARS-CoV-2 wild type (cohort A, 3 dpi); type: in vivo
[4] = up to 80 mg orally daily, up to one year; methanesulfonate; cited from earlier work
Nrf2, Keap1, HO-1 = assay: Nrf2, Keap1 and HO-1 protein levels in Calu3 cells, flow cytometry; type: cell-based, human; conditions: infected and uninfected Calu3
IFN-β, IFN-λ = type: cell-based, human; conditions: infected Calu3, 48 hpi, Mito-MES 100-1000 nM; methanesulfonate
[5] = cited from earlier work
IL-6, IL-10 = type: cell-based, human
[6] = mice, doses as high as 230 mg/kg/day; cited from earlier work
[7] = system: mitochondrial reactive oxygen species (mito-ROS); assay: Mitochondrial reactive oxygen species (MitoSOX Red) and ROS content in Calu3 cells; conditions: 1000 nM Mito-MES; methanesulfonate
Protocol: Flow cytometry was used to determine the cellular content of Calu3 cells for mitochondrial reactive oxygen species (mito-ROS) based on the median fluorescence intensity (MFI) of the fluorochrome MitoSOX Red and was compared to a negative cell population (fluorescence minus one negative control for staining) (ΔMFI). Flow cytometry was used to determine the percent of SARS-CoV-2 infected Calu3 cells positive for MitoSOX Red. Calu3 and Vero cells were treated with DMSO vehicle control (Ctrl) or the mitochondrial antioxidants MitoTEMPO (25-1000 nM) (72 h) or Mito-MES (25-1000 nM) (72 h) and were infected with a fluorescent mNeonGreen SARS-CoV-2 (icSARS-CoV-2-mNG) (MOI 0.3) (48 h). Immunofluorescent analysis of viral replication and cellular oxidative stress was performed at 48 hpi. […] Viral replication was determined by TCID50-assay (FIG. 3-d), cell cytotoxicity was assessed by the XTT assay in uninfected cells treated with dTPP (0.01-10 μM) (72 h) (FIG. 3-e). […]
After 24 h (or 48 h, experiments involving 4F) post-infection, cells were collected and stained with 5 μM MitoSOX Red Mitochondrial reactive oxygen species (mito-ROS) indicator for 30 min at 37° C. […] Cells were then analyzed using an LSR Fortessa flow cytometer and FACSDiva software (Becton & Dickinson, San Diego, Calif., USA), and data were analyzed using FlowJo software.

SARS-CoV-2 [8] = assay: Post-exposure prophylaxis in two parents of a household exposed to SARS-CoV-2; type: in vivo, human
From the text: FIG. 8-a show the timeline of exposure, symptoms and diagnostic tests in household. Two parents [[…], A1 with history of chronic myelogenous leukemia (CML) and healthy parent 39 years, A2] were notified on Dec. 5, 2020 [defined as day 5 (D5)], that the schoolteacher (T1) of their child (C1) tested positive for SARS-CoV-2 and developed symptoms of Covid-19. C1 had 6-h exposure to T1 on November 30 (with masks) (D0). The family had no other exposure to any other person between November 20-30 (D-10 to D0) given Thanksgiving Day on November 26 (D-4). Several children and parents from the same school class were infected with Covid-19 within the first 2 weeks of December. C1 developed fever (100.4° F.; 38° C.) and fatigue 2.5 days after exposure (D0) that lasted 3 days (D2-D5) and remained asymptomatic since then. The second child (C2) was asymptomatic until D12 when they developed fever (100.4° F.; 38° C.), fatigue and coryza on D12-D14. A1 and A2 started Mito-MES on D4. […]
One important consideration with COVID-19 testing is that it is often unclear how exactly the NP swab was obtained (by healthcare worker or not and whether the posterior or anterior nasopharynx were assessed). […]

IL-6 = type: cell-based, African green monkey; conditions: Mito-MES 10-1000 nM, 4F 10 μM
SARS-CoV-2 [9] = assay: SARS-CoV-2 replication in human airway epithelial (HAE) air-liquid interface cultures, flow cytometry; type: cell-based
cleaved caspase 3 [10] = type: cell-based, human; conditions: methanesulfonate

COC1=C(OC)C(=O)C(CCCCCCCCCC[P+](c2ccccc2)(c2ccccc2)c2ccccc2)=C(C)C1=O.CS(=O)(=O)[O-] [Mito-MES, 10-(4,5-dimethoxy-2-methyl-3,6-dioxo-1,4-cyclohexadienyl) decyl triphenylphosphonium methanesulfonate]
SARS-CoV-2-induced cleavage of caspase 3, immunofluorescence (cleaved caspase 3 [1]; Mito-MES 10-1000 nM): reduced SARS-CoV-2-induced increase in cleavage of caspase 3; also recorded: reduced by Mito-MES treatment
percent of infected cells positive for cleaved caspase 3 and MFI of cleaved caspase 3 per cell, flow cytometry (cleaved caspase 3 [1]; Mito-MES 100 nM, 4F 10 μM): attenuated SARS-CoV-2-induced increase; also recorded: inhibits or reduces SARS-CoV-2-induced increase
secretion of IL-10, Luminex [2]: tended (p=0.09) to reduce the secretion of IL-10
reduction in IL-6 in the lungs, Luminex ([3]; 4 mg/kg i.p. daily, 3 dpi): at least 2 orders of magnitude
reduction in IL-lb in the lungs, Luminex ([3]; 4 mg/kg i.p. daily, 3 dpi): at least 2 orders of magnitude
frequency of CD45+ immune cells in lungs, flow cytometry ([3]; 3 dpi): reduced frequency of CD45+ immune
frequency of NK cells in lungs ([3]; 3 dpi): reduced frequency of NK cells
levels of TNFa ([3]; WT SARS-CoV-2): did not change
protein levels of IL-18 ([3]; cohort A and cohort B): did not change protein levels of IL-18
frequency of neutrophils, macrophages, myeloid DCs, lymphoid DCs, T cells, B cells ([3]; lungs, flow cytometry): did not alter frequency
safety in humans [4]: safety for up to one year in doses as high as 80 mg orally daily has been validated; also recorded: without any serious adverse events
protein levels of Nrf2 (Nrf2, Keap1, HO-1): did not impact protein levels of Nrf2
protein levels of Keap (Keap1) (Nrf2, Keap1, HO-1; methanesulfonate): reduced protein levels of the endogenous Nrf2 inhibitor, Keap1; also recorded: reduced protein levels of Keap
secreted and cellular IFN-β and IFN-λ (IFN-β, IFN-λ): did not impact increase in secreted and cellular IFN-β
average elevation of fasting plasma concentrations ([5]; 40-80 mg/day, after about 10 days): about 5 ng/mL
plasma concentration after 24 h ([5]; humans, single 40 mg oral dose): about 2 ng/ml
maximal plasma concentration ([5]; humans, single 80 mg oral dose): 33 ng/mL
time of maximal plasma concentration ([5]; humans, single 80 mg oral dose): about 1 h
secretion / release of IL-6 (IL-6, IL-10): attenuated SARS-CoV-2-induced increase in secretion of IL-6
secretion of IL-10 (IL-6, IL-10): reduced secretion of IL-10
mutagenicity and toxicity [6]: non-mutagenic and non-toxic
ROS content of Calu3 cells [7]: increased the ROS content of Calu3 cells
plasma IgG to SARS-CoV-2 S1 protein (SARS-CoV-2 [8]; each parent, three timepoints over 5 weeks): undetectable levels
symptoms and virological / serological confirmation of infection (SARS-CoV-2 [8]; two parents, 20 mg/day oral Mito-MES from D4, 6 weeks): remained asymptomatic and without virological and serological confirmation of infection
SARS-CoV-2-induced secretion of IL-6 (IL-6): attenuated the increase in secretion of IL-6
Viral replication by flow cytometry in human airway epithelial cells (SARS-CoV-2 [9]; 1 μM Mito-MES, Control 20.0%, MOI 0.1): 0.4%
percent of SARS-CoV-2 infected human lung epithelial cells, flow cytometry (SARS-CoV-2 [9]; HAE ALI cultures, 100 nM Mito-MES): significantly reduced the percent of SARS-CoV-2 infected human lung epithelial cells
percent of SARS-CoV-2 infected FOXJ1+ ciliated epithelial cells, flow cytometry (SARS-CoV-2 [9]; HAE ALI cultures, methanesulfonate): significantly reduced the percent of human FOXJ1 (forkhead box J1) positive ciliated epithelial cells infected with SARS-CoV-2
SARS-CoV-2-induced cleavage of caspase 3, immunofluorescence (cleaved caspase 3 [10]; Calu3, Mito-MES 10-1000 nM): reduced SARS-CoV-2-induced increase in cleavage of caspase 3; also recorded: reduced by Mito-MES treatment
percent of infected cells positive for cleaved caspase 3 and MFI of cleaved caspase 3 per cell, flow cytometry (cleaved caspase 3 [10]; Calu3, Mito-MES 100 nM, 4F 10 μM): attenuated SARS-CoV-2-induced increase; also recorded: inhibits or reduces SARS-CoV-2-induced increase
